Test results from patent US4065570A (priority 1975, dated 1977).
Converted amounts (≈) assume the structure as drawn. “And” between values parts separate entries of the source, which are not always exact repeats. Equal values may be shown once.

Tests used:
[1] = system: Polio I; experiment: cells; format: cell-based; conditions: Primates
[2] = system: viruses of the Picorna group; experiment: antiviral activity (general statements); format: cell-based; conditions: result in words
Description: The in vitro activity of representative compounds of the present invention are set forth below.
(§1) In preparing the compounds for testing, they were handled aseptically throughout. The compounds were dissolved in a minimum amount of a suitable solvent, and the final dilutions were made up to the required volume in a complete culture medium in a concentration not exceeding the predetermined maximum non-cytotoxic levels.
(§2) The cell cultures used in all primary in vitro antipicorna virus screening tests were an established cell line of the African green monkey kidney (VERO), a primary cell culture of the Cercopythecus monkey kidney, or human embryonic lung diploid cells WI-38.
(§3) The cells were grown in test tubes in a suitable medium. Immediately before use the initial medium was replaced with the one which contained the test compound in an appropriate concentration. After the virus was added, the infected culture was incubated at 37° C for a number of days and the cytopathic effect of the virus observed and recorded. The results were read every day in all of the tubes and the destruction of cells assessed in precentage of the cell sheet destroyed: 0-25-50-75-100%. As controls, cells with only virus (for cytopathic effect) or with only the compound (for cytotoxic effect) were used as well as the normal, uninfected cells (no cytotoxic -- no cytopathic effects).
Net difference in cytopathic effect between treated and control tubes expressed in percentage give the extent of the inhibitory activity of the substance.

[3] = cytotoxicity against Vero cells; format: cell-based, African green monkey; conditions: african green monkey
Description: as §1, §2
(§4) The cytotoxic stuides were performed on each of the compounds to determine the level of response of the cells used to the potentially toxic action of the substances.
as §3

[4] = system: Polio I; experiment: organism not typed; format: cell-based; conditions: Vero
[5] = system: Vero cells; experiment: cytotoxicity against Vero cells; format: cell-based, African green monkey; conditions: Vero cells; for Cytotoxicity CTD50: 50% inhibition of the cell growth; for Cytotoxicity CTD0: maximal non-toxic concentration
Description: as §1, §2, §4, §3

COc1ccc(C=C2NC(=O)NC2=O)cc1OC [5-(3',4'-DIMETHOXYBENZAL) HYDANTOIN, 5-(3',4'-Dimethoxybenzal) hydantoin]
inhibition at 50 µg/mL [1]: 34%
inhibition at 100 µg/mL [1]: 45%

COc1ccc(C=C2C(=O)N(C(C)=O)C(=O)N2C(C)=O)cc1OC [Example 32, N,N-diacetylated 5-(3',4'-dimethoxybenzal) hydantoin]
anti-viral activity in tissue culture tests [2]: much greater anti-viral activity than the former
CC50 ([3]; vero cells, read-out: Cytotoxicity CTD50): 33 µg/mL (≈ 99.3 µM)
MNTC ([3]; Vero cells, maximal non-toxic concentration, read-out: Cytotoxicity CTD0): 10 µg/mL
inhibition at 1 µg/mL ([4]; 316 TCID50, 1 μg/ml): 100%
inhibition at 5 µg/mL ([4]; 316 TCID50, 5 μg/ml): 100%
inhibition at 10 µg/mL ([4]; 316 TCID50, 10 μg/ml): 100%
inhibition at 50 µg/mL ([4]; 316 TCID50, 50 μg/ml): 100%

Acetylated 5-(2',4',5'-trimethoxybenzal) hydantoin [Example 22]
Cytotoxicity CTD50 [5]: > 100 µg/mL
Cytotoxicity CTD0 [5]: 1 µg/mL
% Inhibition ([4]; 10 TCID50, 0.01 μg/ml): 4%
% Inhibition ([4]; 10 TCID50, 0.03 μg/ml): 8%
% Inhibition ([4]; 10 TCID50, 0.07 μg/ml): 27%
% Inhibition ([4]; 10 TCID50, 0.1 μg/ml): 54%
% Inhibition ([4]; 10 TCID50, 0.3 μg/ml): 98%
% Inhibition ([4]; 10 TCID50, 0.7 μg/ml): 98%
% Inhibition ([4]; 10 TCID50, 1 μg/ml): 100%
% Inhibition ([4]; 100 TCID50, 0.01 μg/ml): 0%
% Inhibition ([4]; 100 TCID50, 0.03 μg/ml): 0%
% Inhibition ([4]; 100 TCID50, 0.07 μg/ml): 25%
% Inhibition ([4]; 100 TCID50, 0.1 μg/ml): 50%
% Inhibition ([4]; 100 TCID50, 0.3 μg/ml): 90%
% Inhibition ([4]; 100 TCID50, 0.7 μg/ml): 93%
% Inhibition ([4]; 100 TCID50, 1 μg/ml): 100%

Acetylated 5-(3',4',5'-trimethoxybenzal) hydantoin [Example 23]
Cytotoxicity CTD50 [5]: 50 µg/mL
Cytotoxicity CTD0 [5]: 10 µg/mL
% Inhibition ([4]; 316 TCID50, 0.1 μg/ml): 0%
% Inhibition ([4]; 316 TCID50, 0.3 μg/ml): 14%
% Inhibition ([4]; 316 TCID50, 0.7 μg/ml): 36%
% Inhibition ([4]; 316 TCID50, 1 μg/ml): 46%
% Inhibition ([4]; 316 TCID50, 3.3 μg/ml): 56%
% Inhibition ([4]; 316 TCID50, 6.7 μg/ml): 72%
% Inhibition ([4]; 316 TCID50, 10 μg/ml): 96%

Acetylated 5-(3',4'-dimethoxybenzal) hydantoin
degree of antiviral activity ([2]; listed as Example 30): highly effective against Picorna group of viruses
degree of antiviral activity ([2]; listed as acetylated 5-(3',4'-dimethoxybenzal) hydantoin (anhydrous sodium acetate and ace)): exceptionally good antiviral activity

Acetylated 5-(3',5'-dimethoxybenzal) hydantoin [Example 21]
Cytotoxicity CTD50 [5]: > 100 µg/mL and 100 µg/mL
Cytotoxicity CTD0 [5]: 100 µg/mL
% Inhibition ([4]; 10 TCID50, 0.5 μg/ml): 15%
% Inhibition ([4]; 10 TCID50, 1 μg/ml): 50%
% Inhibition ([4]; 10 TCID50, 5 μg/ml): 100%
% Inhibition ([4]; 10 TCID50, 10 μg/ml): 100%
% Inhibition ([4]; 100 TCID50, 0.5 μg/ml): 0%
% Inhibition ([4]; 100 TCID50, 1 μg/ml): 32%
% Inhibition ([4]; 100 TCID50, 5 μg/ml): 100%
% Inhibition ([4]; 100 TCID50, 10 μg/ml): 100%

Acetylated 5-(3'-methoxy-4'-acetoxybenzal) hydantoin [Example 15]
Cytotoxicity CTD50 [5]: > 100 µg/mL
Cytotoxicity CTD0 [5]: > 10 µg/mL

Acetylated 5-benzalhydantoin [Example 16]
Cytotoxicity CTD50 [5]: 83 µg/mL
Cytotoxicity CTD0 [5]: 10 µg/mL

N-monoacetylated 5-(3',4'-dimethoxybenzal) hydantoin [Example 31]
anti-viral activity in tissue culture tests [2]: more active than the unacetylated compound
Cytotoxicity CTD50 [5]: 100 µg/mL
Cytotoxicity CTD0 [5]: 10 µg/mL
% Inhibition ([4]; 316 TCID50, 1 μg/ml): 0%
% Inhibition ([4]; 316 TCID50, 5 μg/ml): 0%
% Inhibition ([4]; 316 TCID50, 10 μg/ml): 7%
% Inhibition ([4]; 316 TCID50, 50 μg/ml): 84%
